# pIC50: −log10 of the molar value.
# How the values were obtained:
# TNF-α = assay: LPS-induced TNF-α production in human PBMC, in vitro whole cell assay (ELISA); format: cell-based; details: LPS stimulation overnight, TNF-α by ELISA
# Procedure: Compounds of the invention were measured for their ability to inhibit the activity of p38 in an in vitro whole cell assay using peripheral blood mononuclear cells (“PBMC” ) obtained from human blood as follows. Freshly obtained venous blood was anticoagulated with heparin, diluted with an equal volume of phosphate buffered saline (“PBS” ) and placed in a sterile tube or other container. Aliquots (30 mL) of this mixture were transferred to centrifuge tubes which were underlaid with Ficoll-Hypaque (15 mL). The prepared tubes were centrifuged at 400×g without braking for 30 min at room temperature. Approximately ½ to ⅔ of the platelet layer above the mononuclear cell band was removed with a pipet. The majority of the mononuclear cell layer was carefully removed using a pipet and these PBMCs were diluted with PBS and spun at 600×g for 15 min. The resulting PBMCs were washed with another portion of PBS and spun at 400×g for 10 min at room temperature. The recovered pellets were diluted in low endotoxin RPMI/1% FCS culture medium and gave a cell concentration of 0.5–2.0×10^6 PMBC/mL. A small volume of the suspension was removed for counting on a hemocytometer and the remaining preparation was centrifuged at 200×g for 15 min at room temperature. The recovered pelleted PMBC were resuspended in RPMI/1% FCS to a concentration of 1.67×10^6/mL. […]
# Mouse TNF-α = assay: LPS induced TNF-α production, in vivo rodent assay (oral dosing, serum ELISA); details: LPS 1 mg/kg i.p. 30 min after dosing, serum 1 h later; for inhibition at 10 mg/kg: oral 10 mg/kg; for inhibition at 25 mg/kg: oral 25 mg/kg
# Procedure: Mice (BALB/cJ females, Jackson Laboratories) or rats (Lewis males, Charles River) were fasted for 30 min prior to oral dosing with 5–10 mL/kg of test compound at 5–50 mg/kg. Thirty minutes after dosing, the animals were injected intraperitoneally with LPS at 1 mg/kg and returned to their cages for 1 h. Animals were anesthetized by CO2, exsanguinated by cardiac puncture and whole blood collected (0.1–0.7 mL). The blood was allowed to clot and serum was transferred to a centrifuge tube. This sample was centrifuged, serum was collected, aliquoted and frozen at −80 C. Samples were tested by commercial ELISAs for TNF-α (Endogen for mouse TNF-α and Biosource for rat TNF-α), resulting in data as shown in Table A.
pIC50 (TNF-α),melting point [°C],SMILES,inhibition at 10 mg/kg (Mouse TNF-α) [%],inhibition at 25 mg/kg (Mouse TNF-α) [%]
7.82,171 to 172,"CN1CCC/C1=C\c1nc(-c2ccc(F)cc2)c(-c2ccncc2)n1CCCc1ccccc1 [Compound 1, 4-[4-(4-fluorophenyl)-2-[(E)-(1-methyl-2-pyrrolidinylidene)methyl]-1-(3-phenylpropyl)-1H-imidazol-5-yl]-pyridine]",77,99
7.77,126.6 to 127.6,"CCN1CCC/C1=C\c1nc(-c2ccc(F)cc2)c(-c2ccncc2)n1CCCc1ccccc1 [Compound 2, 4-[4-(4-fluorophenyl)-2-[(E)-(1-ethyl-2-pyrrolidinylidene)methyl]-1-(3-phenylpropyl)-1H-imidazol-5-yl]-pyridine]",89,98

# — patent US7041686B2, “Substituted imidazoles useful in the treatment of inflammatory diseases” (priority 2000, dated 2006)
